From ChEMBL document CHEMBL1123509, “In vitro inhibition of estrogen sulfoconjugation by some 2- and 4-substituted estra-1,3,5(10)-trien-17 beta-ols1a” (J Med Chem, 1986)

Molecular target: T1, Estrogen sulfotransferase (Sus scrofa, UniProt Q95MF8)
T1 sequence (Q95MF8 whole entry): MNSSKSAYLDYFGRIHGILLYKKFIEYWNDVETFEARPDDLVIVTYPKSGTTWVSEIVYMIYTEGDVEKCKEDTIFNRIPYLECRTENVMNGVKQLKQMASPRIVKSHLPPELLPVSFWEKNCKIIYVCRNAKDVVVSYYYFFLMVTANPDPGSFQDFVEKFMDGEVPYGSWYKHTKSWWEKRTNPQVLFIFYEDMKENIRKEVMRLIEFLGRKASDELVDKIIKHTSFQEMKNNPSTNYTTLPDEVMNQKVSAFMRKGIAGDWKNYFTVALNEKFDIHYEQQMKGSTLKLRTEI
Assay: Compound was tested for inhibition of porcine endometrial estrogen sulfotransferase
Conditions: read-out: Ki app

SMILES	Ki
C[C@]12CC[C@@H]3c4cc([N+](=O)[O-])ccc4CC[C@H]3[C@@H]1CC[C@@H]2O	9.76 µM
C[C@]12CC[C@@H]3c4cccc([N+](=O)[O-])c4CC[C@H]3[C@@H]1CC[C@@H]2O	2.43 µM
C[C@]12CC[C@@H]3c4cc(F)ccc4CC[C@H]3[C@@H]1CCC2O (stereo not given in full)	13.6 µM
C[C@]12CC[C@@H]3c4cccc(N)c4CC[C@H]3[C@@H]1CCC2=O	10.5 µM
C[C@]12CC[C@@H]3c4cc(N)ccc4CC[C@H]3[C@@H]1CCC2O (stereo not given in full)	7.51 µM
C[C@]12CC[C@@H]3c4cccc(F)c4CC[C@H]3[C@@H]1CCC2=O	14.8 µM
C[C@]12CC[C@@H]3c4cccc(N)c4CC[C@H]3[C@@H]1CCC2O (stereo not given in full)	11.9 µM
C[C@]12CC[C@@H]3c4ccccc4CC[C@H]3[C@@H]1CCC2=O	25.1 µM
C[C@]12CC[C@@H]3c4cccc(F)c4CC[C@H]3[C@@H]1CC[C@@H]2O	10.2 µM
C[C@]12CC[C@@H]3c4ccccc4CC[C@H]3[C@@H]1CC[C@@H]2O	16.3 µM
